This passage reports Ki results from patent publication US4500525A, “Pharmacologically active pyrazolo/4,3-c/pyridines” (Gruppo Lepetit S.p.A., priority 1982, dated 1985).

Structures can show the parent of a compound that is named as a salt.

The target of this test is α1 adrenoceptor. Kind of test: displacement of ^3 H-prazosin specifically bound in rat brain homogenate (radioligand binding). Particulars: ^3 H Prazosin binding, Ki calculated from IC50, read-out: K1 (nM) ^3 H Prazosin. As to the method:
The compounds of the invention were tested […] for their ability to compete with labelled ligands of α1, α2 -adrenergic,and dopaminergic receptors. Said tests were made essentially following:
(b) the method described by P. Greengrass et al., European Journal of Pharmacology, Vol. 55, pp. 323-326, (1979), which uses the specific displacement of ^3 H-prazosin specifically bound in rat brain homogenate, for the identification of substances interacting with the so called "α1 "adrenoceptor;
The above mentioned methods are radioligand binding assays and are based on the knowledge that many natural or synthetic physiologically active substances such as neurotransmitters, hormones, and others, specifically link to cellular receptors, generally of proteic nature. They are generally obtained from a tissue or organ of a suitable test-animal after isolation and homogenization of said tissue or organ.
The homogenate is twice centrifugated to separate and partially purify the receptorial fraction (synaptosomes).
The labelled substances employed are known to specifically bind their receptors, so the drug-receptor dissociation constants obtained for each test compound under standard conditions are a measure of their actual binding affinities. The validation of the above methods in predicting a possible pharmacological activity was carried out comparing the in vitro binding constants of a number of […] agonist or antagonist of the adrenergic or dopaminergic system with their in vivo activities. The α1 -adrenergic activity is essentially correlated with a peripheral vasodilatation. The α2 -adrenergic activity is essentially correlated with a hypotensive action of central origin, and the dopaminergic activity is correlated with a neuroleptic action. IC50 values, defined as the drug concentration that cause 50% inhibition of the specific ^3 H ligant binding, are observed by incubating from 5 to 7 different dilutions of the tested compound in duplicate or triplicate. Ki, inhibition constant, values are calculated from the following formula: [formula] wherein IC50 is defined as above, C is the concentration of the ^3 H ligand, and KD is the dissociation constant of the ^3 H ligand-receptor complex.
Turning to `CCCCCCn1nc(-c2ccc(F)cc2)c2c1CCN(C)C2` [Example 151, 3-(4-fluorophenyl)-4,5,6,7-tetrahydro-1-n.hexyl-5-methyl-1H-pyrazolo/4,3-c/pyridine, methanesulfonate], the Ki is 15.2 nM.

In the case of `Cc1ccc(-c2n[nH]c3c2CNCC3)cc1` [Example 32, 3-(4-methylphenyl)-4,5,6,7-tetrahydro-1H-pyrazolo/4,3-c/pyridine, dihydrochloride], the Ki was 92.2 nM.

For the molecule `Fc1ccc(-c2nn(CCc3ccccc3)c3c2CNCC3)cc1` [Example 110, 3-(4-fluorophenyl)-1-(2-phenylethyl)-4,5,6,7-tetrahydro-1H-pyrazolo/4,3-c/pyridine, methanesulfonate], the Ki is 40.3 nM.

On to `CN1CCc2c(c(-c3ccccc3)nn2Cc2ccccc2)C1` [Example 145, 4,5,6,7-tetrahydro-5-methyl-3-phenyl-1-phenylmethyl-1H-pyrazolo/4,3-c/pyridine, methanesulfonate], for which the Ki was 49.4 nM.

Regarding `CN1CCc2c(c(-c3ccc(F)cc3)nn2Cc2ccc(Cl)c(Cl)c2)C1` [Example 136, 1-(3,4-dichlorophenylmethyl)-3-(4-fluorophenyl)-5-methyl-4,5,6,7-tetrahydro-1H-pyrazolo/4,3-c/pyridine], the Ki is 21.9 nM.

`Fc1ccc(-c2n[nH]c3c2CNCC3)cc1` [Example 19, 3-(4-fluorophenyl)-4,5,6,7-tetrahydro-1H-pyrazolo/4,3-c/pyridine]: the Ki is 69.2 nM.

Regarding `CC(C)N1CCc2c(c(-c3ccc(F)cc3)nn2Cc2ccccc2)C1` [Example 162, 3-(4-fluorophenyl)-5-(2-methylethyl)-1-phenylmethyl-4,5,6,7-tetrahydro-1H-pyrazolo/4,3-c/pyridine], the Ki was 97.6 nM.

With `CN1CCc2c(c(-c3ccc(F)cc3)nn2Cc2ccccc2)C1` [Example 128, 3-(4-fluorophenyl)-5-methyl-1-phenylmethyl-4,5,6,7-tetrahydro-1H-pyrazolo/4,3-c/pyridine, methanesulfonate], the Ki is 21.2 nM.

Turning to `Fc1ccc(-c2nn(Cc3ccccc3Cl)c3c2CNCC3)cc1` [Example 114, 1-(2-chlorophenylmethyl)-3-(4-fluorophenyl)-4,5,6,7-tetrahydro-1H-pyrazolo/4,3-c/pyridine, methanesulfonate], the Ki was 17.3 nM.

In the case of `Fc1ccc(-c2nn(CCCc3ccccc3)c3c2CNCC3)cc1` [Example 111, 3-(4-fluorophenyl)-1-(3-phenylpropyl)-4,5,6,7-tetrahydro-1H-pyrazolo/4,3-c/pyridine, methanesulfonate], the Ki was 12.9 nM.

For `CCCCCn1nc(-c2ccc(F)cc2)c2c1CCNC2` [Example 122, 3-(4-fluorophenyl)-4,5,6,7-tetrahydro-1-n.pentyl-1H-pyrazolo/4,3-c/pyridine, methanesulfonate], the Ki was 8.7 nM.

With `Fc1ccc(-c2nn(Cc3ccc(Cl)cc3)c3c2CNCC3)cc1` [Example 103, 1-(4-chlorophenylmethyl)-3-(4-fluorophenyl)-4,5,6,7-tetrahydro-1H-pyrazolo/4,3-c/pyridine, hydrochloride], the Ki was 11.1 nM.

With `CC(c1ccccc1)n1nc(-c2ccc(F)cc2)c2c1CCNC2` (stereo not shown) [Example 116, 3-(4-fluorophenyl)-4,5,6,7-tetrahydro-1-(1-phenylethyl)-1H-pyrazolo/4,3-c/pyridine, methanesulfonate], the Ki was 7.24 nM.

Turning to `Cc1ccc(-c2nn(Cc3ccccc3)c3c2CN(C)CC3)cc1` [Example 147, 4,5,6,7-tetrahydro-5-methyl-3-(4-methylphenyl)-1-phenylmethyl-1H-pyrazolo/4,3-c/pyridine, methanesulfonate], the Ki was 20.1 nM.

`CN1CCc2c(c(-c3ccc(F)cc3)nn2Cc2ccccc2Cl)C1` [Example 142, 1-(2-chlorophenylmethyl)-3-(4-fluorophenyl)-5-methyl-4,5,6,7-tetrahydro-1H-pyrazolo/4,3-c/pyridine, methanesulfonate]: the Ki is 36.3 nM.

In the case of `COc1ccc(Cn2nc(-c3ccc(F)cc3)c3c2CCNC3)cc1` [Example 105, 3-(4-fluorophenyl)-1-(4-methoxyphenylmethyl)-4,5,6,7-tetrahydro-1H-pyrazolo/4,3-c/pyridine, hydrochloride], the Ki is 6.23 nM.

As for `Fc1ccc(-c2nn(Cc3ccc(Cl)c(Cl)c3)c3c2CNCC3)cc1` [Example 108, 1-(3,4-dichlorophenylmethyl)-3-(4-fluorophenyl)-4,5,6,7-tetrahydro-1H-pyrazolo/4,3-c/pyridine, hydrochloride], the Ki is 7.48 nM.

For the molecule `CN1CCc2c(c(-c3ccc(F)cc3)nn2Cc2ccc(Cl)cc2)C1` [Example 132, 1-(4-chlorophenylmethyl)-3-(4-fluorophenyl)-5-methyl-4,5,6,7-tetrahydro-1H-pyrazolo/4,3-c/pyridine, methanesulfonate], the Ki was 20.8 nM.

For `CC(c1ccccc1)n1nc(-c2ccc(F)cc2)c2c1CCN(C)C2` (stereo not shown) [Example 144, 3-(4-fluorophenyl)-4,5,6,7-tetrahydro-5-methyl-1-(1-phenylethyl)-1H-pyrazolo/4,3-c/pyridine, hydrochloride], the Ki is 8.14 nM.

As for `CCCn1nc(-c2ccc(F)cc2)c2c1CCNC2` [Example 112, 3-(4-fluorophenyl)-1-n.propyl-4,5,6,7-tetrahydro-1H-pyrazolo/4,3-c/pyridine, methanesulfonate], the Ki was 24.2 nM.

Take `Clc1ccc(-c2nn(Cc3ccccc3)c3c2CNCC3)cc1` [Example 118, 3-(4-chlorophenyl)-4,5,6,7-tetrahydro-1-phenylmethyl)-1H-pyrazolo/4,3-c/pyridine, hydrochloride]: the Ki is 14.5 nM.

For the molecule `CC(C)n1nc(-c2ccc(F)cc2)c2c1CCNC2` [Example 95, 3-(4-fluorophenyl)-1-(2-methylethyl)-4,5,6,7-tetrahydro-1H-pyrazolo/4,3-c/pyridine, methanesulfonate], the Ki was 32.2 nM.

`Fc1ccc(-c2nn(Cc3ccccc3)c3c2CN(C2CCCC2)CC3)cc1` [Example 163, 5-cyclopentyl-3-(4-fluorophenyl)-1-phenylmethyl-4,5,6,7-tetrahydro-1H-pyrazolo/4,3-c/pyridine, hydrochloride]: the Ki was 42.4 nM.

Take `Cn1nc(-c2ccccc2)c2c1CCNC2` [Example 96, 1-methyl-3-phenyl-4,5,6,7-tetrahydro-1H-pyrazolo/4,3-c/pyridine, methanesu lfonate]: the Ki was 52 nM.

With `CN1CCc2c(c(-c3ccc(F)cc3)nn2CCc2ccccc2)C1` [Example 138, 3-(4-fluorophenyl)-1-(2-phenylethyl)-5-methyl-4,5,6,7-tetrahydro-1H-pyrazolo/4,3-c/pyridine], the Ki was 40.3 nM.

As to `COc1ccc(Cn2nc(-c3ccc(F)cc3)c3c2CCN(C)C3)cc1` [Example 133, 3-(4-fluorophenyl)-1-(4-methoxyphenylmethyl)-5-methyl-4,5,6,7-tetrahydro-1H-pyrazolo/4,3-c/pyridine, hydrochloride], the Ki was 12.4 nM.

Take `CN1CCc2c(c(-c3ccc(F)cc3)nn2CCCc2ccccc2)C1` [Example 139, 3-(4-fluorophenyl)-1-(3-phenylpropyl)-5-methyl-4,5,6,7-tetrahydro-1H-pyrazolo/4,3-c/pyridine, hydrochloride]: the Ki is 20.6 nM.

As for `CN1CCc2c(c(-c3ccc(Cl)cc3)nn2Cc2ccccc2)C1` [Example 146, 3-(4-chlorophenyl)-4,5,6,7-tetrahydro-5-methyl-1-phenylmethyl-1H-pyrazolo/4,3-c/pyridine, methanesulfonate], the Ki was 30.9 nM.

In the case of `CCCCn1nc(-c2ccc(F)cc2)c2c1CCNC2` [Example 113, 3-(4-fluorophenyl)-1-n.butyl-4,5,6,7-tetrahydro-1H-pyrazolo/4,3-c/pyridine, methanesulfonate], the Ki was 17.3 nM.

As for `CCCCCCn1nc(-c2ccc(F)cc2)c2c1CCNC2` [Example 123, 3-(4-fluorophenyl)-4,5,6,7-tetrahydro-1-n.hexyl-1H-pyrazolo/4,3-c/pyridine, methanesulfonate], the Ki is 13 nM.

With `CCCCn1nc(-c2ccc(F)cc2)c2c1CCN(C)C2` [Example 141, 3-(4-fluorophenyl)-1-n.butyl-5-methyl-4,5,6,7-tetrahydro-1H-pyrazolo/4,3-c/pyridine, methanesulfonate], the Ki is 32.8 nM.

Turning to `c1ccc(Cn2nc(-c3ccccc3)c3c2CCNC3)cc1` [Example 117, 4,5,6,7-tetrahydro-3-phenyl-1-phenylmethyl-1H-pyrazolo/4,3-c/pyridine, hydrochloride], the Ki is 38.6 nM.

`Cc1ccc(-c2nn(Cc3ccccc3)c3c2CNCC3)cc1` [Example 119, 4,5,6,7-tetrahydro-3-(4-methylphenyl)-1-phenylmethyl-1H-pyrazolo/4,3-c/pyridine, hydrochloride]: the Ki is 5.86 nM.

Turning to `CCCn1nc(-c2ccc(F)cc2)c2c1CCN(C)C2` [Example 140, 3-(4-fluorophenyl)-1-n.propyl-5-methyl-4,5,6,7-tetrahydro-1H-pyrazolo/4,3-c/pyridine, methanesulfonate], the Ki was 73.5 nM.
